Laboratory results from article PMC10663540, “Structure-based discovery of dual pathway inhibitors for SARS-CoV-2 entry” (Nature Communications, 2023).
Several values for one entry are separate records, joined by “and”; a condition that tells them apart may be missing. Equal values may be shown once.

Columns and labels:
[1] = test system: SARS-CoV-2-S pseudotyped virus Omicron BA.2; assay: microbe, parasite or virus in culture; assay type: cell-based
[2] = test system: SARS-CoV-2-S pseudotyped virus Omicron BA.4/BA.5; assay: microbe, parasite or virus in culture; assay type: cell-based
human CTSL = target: T1, human CTSL (Homo sapiens, UniProt P07711); assay: FRET enzymatic inhibition assay of CTSL (IC50 measurement); assay type: biochemical
T1 construct: made in house

[3] = test system: SARS-CoV-2-S pseudotyped virus Omicron BA.2.12.1; assay: microbe, parasite or virus in culture; assay type: cell-based
[4] = Severe acute respiratory syndrome coronavirus 2, Huh-7, 120 h, 212-148 20 μM, Fig. 5d
[5] = Severe acute respiratory syndrome coronavirus 2, Huh-7, read-out: Antiviral efficacy EC50 (95% CI)

T1 sequence (P07711 114-333): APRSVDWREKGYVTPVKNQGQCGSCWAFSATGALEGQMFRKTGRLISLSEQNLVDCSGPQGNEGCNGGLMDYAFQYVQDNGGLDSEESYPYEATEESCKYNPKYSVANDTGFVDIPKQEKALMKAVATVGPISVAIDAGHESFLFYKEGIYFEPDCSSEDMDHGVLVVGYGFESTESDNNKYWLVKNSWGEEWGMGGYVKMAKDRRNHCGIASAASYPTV

## NC(N)=Nc1ccc(C(=O)OCCN2CCN(C(=O)N[C@@H](Cc3ccccc3)C(=O)N[C@H](/C=C/S(=O)(=O)c3ccccc3)CCc3ccccc3)CC2)cc1 [212-148]
[1]; 212-148 0.00128 μM, Fig. 5d
  Inhibition: BA.2/Huh-7: 25.89% and 19.49%
[1]; 212-148 0.8 μM, Fig. 5d
  Inhibition: BA.2/Huh-7: 91.14% and 94.17%
[1]; 212-148 4 μM, Fig. 5d
  Inhibition: BA.2/Huh-7: 97.31% and 97.73%
[1]; 212-148 20 μM, Fig. 5d
  Inhibition: BA.2/Huh-7: 84.53% and 89.27%
[1]; Severe acute respiratory syndrome coronavirus 2, Huh-7, 120 h, 212-148 0.00128 μM, Fig. 5d
  inhibition at 0.00128 µM: 38.3%
[1]; Severe acute respiratory syndrome coronavirus 2, Huh-7, 120 h, 212-148 0.8 μM, Fig. 5d
  inhibition at 0.8 µM: 99.7%
[1]; Severe acute respiratory syndrome coronavirus 2, Huh-7, 120 h, 212-148 4 μM, Fig. 5d
  inhibition at 4 µM: 83.7%
[1]; [4]
  inhibition at 20 µM: 97.9%
[1]; [5]
  EC50: 5.7 nM
[2]; 212-148 2e-5 μM, Fig. 5d
  Inhibition: BA.4.5/Huh-7: 20.50% and 13.32% and 20.61%
[2]; 212-148 0.0002 μM, Fig. 5d
  Inhibition: BA.4.5/Huh-7: 32.55% and 30.98%
[2]; 212-148 0.002 μM, Fig. 5d
  Inhibition: BA.4.5/Huh-7: 62.17% and 52.89%
[2]; 212-148 0.02 μM, Fig. 5d
  Inhibition: BA.4.5/Huh-7: 82.60% and 83.49%
[2]; 212-148 0.2 μM, Fig. 5d
  Inhibition: BA.4.5/Huh-7: 89.43% and 91.48%
[2]; 212-148 2 μM, Fig. 5d
  Inhibition: BA.4.5/Huh-7: 89.92% and 91.92%
[2]; 212-148 20 μM, Fig. 5d
  Inhibition: BA.4.5/Huh-7: 95.01% and 96.39%
[2]; Severe acute respiratory syndrome coronavirus 2, Huh-7, 120 h, 212-148 0.0002 μM, Fig. 5d, read-out: Inhibition: BA.4.5/Huh-7
  inhibition at 0.0002 µM: 43.8%
[2]; Severe acute respiratory syndrome coronavirus 2, Huh-7, 120 h, 212-148 0.002 μM, Fig. 5d, read-out: Inhibition: BA.4.5/Huh-7
  inhibition at 0.002 µM: 63.5%
[2]; Severe acute respiratory syndrome coronavirus 2, Huh-7, 120 h, 212-148 0.02 μM, Fig. 5d, read-out: Inhibition: BA.4.5/Huh-7
  inhibition at 0.02 µM: 84.4%
[2]; Severe acute respiratory syndrome coronavirus 2, Huh-7, 120 h, 212-148 0.2 μM, Fig. 5d, read-out: Inhibition: BA.4.5/Huh-7
  inhibition at 0.2 µM: 86.9%
[2]; Severe acute respiratory syndrome coronavirus 2, Huh-7, 120 h, 212-148 2 μM, Fig. 5d, read-out: Inhibition: BA.4.5/Huh-7
  inhibition at 2 µM: 86.8%
[2]; Severe acute respiratory syndrome coronavirus 2, Huh-7, 120 h, 212-148 20 μM, Fig. 5d, read-out: Inhibition: BA.4.5/Huh-7
  inhibition at 20 µM: 92.5%
[2]; [5]
  EC50: 0.4 nM
Human CTSL; 212-148 0.0152588 nM, Fig. 5c
  Inhibition: CTSL: 2.91% and -0.21% and -1.28% and 1.99%
Human CTSL; 212-148 0.0305176 nM, Fig. 5c
  Inhibition: CTSL: 3.33% and -0.12% and 1.43% and -2.77%
Human CTSL; 212-148 0.0610352 nM, Fig. 5c
  Inhibition: CTSL: -0.57% and 0.90% and 3.39% and -2.15%
Human CTSL; 212-148 0.12207 nM, Fig. 5c
  Inhibition: CTSL: 9.01% and 2.36% and 0.90% and 3.32%
Human CTSL; 212-148 0.244141 nM, Fig. 5c
  Inhibition: CTSL: 8.36% and 6.61% and 10.35%
  inhibition at 0.000244141 µM: 6.2%
Human CTSL; 212-148 0.488281 nM, Fig. 5c
  Inhibition: CTSL: 11.98% and 10.08% and 8.64%
  inhibition at 0.000488281 µM: 11.8%
Human CTSL; 212-148 0.976562 nM, Fig. 5c
  Inhibition: CTSL: 27.34% and 25.99% and 25.66%
  inhibition at 0.000976562 µM: 23.1%
Human CTSL; 212-148 1.95312 nM, Fig. 5c
  Inhibition: CTSL: 44.61% and 46.51% and 45.72%
  inhibition at 0.00195312 µM: 48%
Human CTSL; 212-148 3.90625 nM, Fig. 5c
  Inhibition: CTSL: 71.05% and 70.57% and 71.92%
  inhibition at 0.00390625 µM: 73.5%
Human CTSL; 212-148 7.8125 nM, Fig. 5c
  Inhibition: CTSL: 92.07% and 92.09% and 91.52%
  inhibition at 0.0078125 µM: 91.9%
Human CTSL; 212-148 15.625 nM, Fig. 5c
  Inhibition: CTSL: 98.41% and 99.33% and 98.88%
  inhibition at 0.015625 µM: 98.4%
Human CTSL; 212-148 31.25 nM, Fig. 5c
  Inhibition: CTSL: 100.04% and 99.69% and 99.78%
  inhibition at 0.03125 µM: 99.8%
Human CTSL; 212-148 62.5 nM, Fig. 5c
  Inhibition: CTSL: 100.21% and 99.82% and 99.78%
  inhibition at 0.0625 µM: 100%
Human CTSL; 212-148 125 nM, Fig. 5c
  Inhibition: CTSL: 100.33% and 100.36% and 100.30%
  inhibition at 0.125 µM: 100%
Human CTSL; 212-148 250 nM, Fig. 5c
  Inhibition: CTSL: 99.87% and 99.66% and 100.24%
  inhibition at 0.25 µM: 100%
Human CTSL; 212-148 500 nM, Fig. 5c
  Inhibition: CTSL: 100.03% and 100.68% and 99.61%
  inhibition at 0.5 µM: 99.9%
Human CTSL; 212-148 1000 nM, Fig. 5c
  Inhibition: CTSL: 100.34% and 99.76% and 100.32%
  inhibition at 1 µM: 99.5%
Human CTSL; 212-148 2000 nM, Fig. 5c
  Inhibition: CTSL: 100.56% and 99.97%
  inhibition at 2 µM: 99%
Human CTSL; substrate Cbz-Phe-Arg-AMC, pH 5.5, mean ± SD, four replicates
  IC50: 2.13 nM
[3]; 212-148 0.0002 μM, Fig. 5d
  Inhibition: BA.2.12.1/Huh-7: 25.45% and 41.55%
[3]; 212-148 0.002 μM, Fig. 5d
  Inhibition: BA.2.12.1/Huh-7: 72.96% and 74.23%
[3]; 212-148 0.02 μM, Fig. 5d
  Inhibition: BA.2.12.1/Huh-7: 77.85% and 80.42%
[3]; 212-148 0.2 μM, Fig. 5d
  Inhibition: BA.2.12.1/Huh-7: 82.33% and 85.32%
[3]; 212-148 2 μM, Fig. 5d
  Inhibition: BA.2.12.1/Huh-7: 85.90% and 86.81%
[3]; 212-148 20 μM, Fig. 5d
  Inhibition: BA.2.12.1/Huh-7: 92.77% and 92.47%
[3]; Severe acute respiratory syndrome coronavirus 2, Huh-7, 120 h, 212-148 0.0002 μM, Fig. 5d
  inhibition at 0.0002 µM: 26.2%
[3]; Severe acute respiratory syndrome coronavirus 2, Huh-7, 120 h, 212-148 0.002 μM, Fig. 5d
  inhibition at 0.002 µM: 70.2%
[3]; Severe acute respiratory syndrome coronavirus 2, Huh-7, 120 h, 212-148 0.02 μM, Fig. 5d
  inhibition at 0.02 µM: 75.2%
[3]; Severe acute respiratory syndrome coronavirus 2, Huh-7, 120 h, 212-148 0.2 μM, Fig. 5d
  inhibition at 0.2 µM: 82.3%
[3]; Severe acute respiratory syndrome coronavirus 2, Huh-7, 120 h, 212-148 2 μM, Fig. 5d
  inhibition at 2 µM: 86.3%
[3]; [4]
  inhibition at 20 µM: 91.6%
[3]; [5]
  EC50: 0.4 nM
